Consider eleven molecules from patent US20250040552A1, “FUNGICIDAL COMPOSITIONS” (SYNGENTA CROP PROTECTION AG, priority 2021, published 2025).

Each structure is given as a SMILES string.

In test [1] the test system is Blumeria graminis f. sp. tritici (Erysiphe graminis f. sp. tritici). The experiment in a line: Example A4: Blumeria graminis f. sp. tritici / wheat / leaf disc preventative (powdery mildew on wheat). The test is classed as in vivo. The note with it: foliar, compared to untreated control. The text has this: Example A4: Blumeria graminis f. Sp. Tritici (Erysiphe graminis f. Sp. Tritici)/Wheat/Leaf Disc Preventative (Powdery Mildew on Wheat) Wheat leaf segments cv. Kanzler are placed on agar in a multiwell plate (24-well format) and sprayed with the formulated test compound diluted in water. The leaf disks are inoculated by shaking powdery mildew infected plants above the test plates 1 day after application. […] […].10, and X.11.

Test [2] deals with Monographella nivalis (Microdochium nivale). The experiment in a line: Example A6: Monographella nivalis (Microdochium nivale) / liquid culture (foot rot cereals). Conditions: compared to untreated control. The test is classed as cell-based. The text has this: Example A6: Monographella nivalis (Microdochium nivale)/Liquid Culture (Foot Rot Cereals) Conidia of the fungus from cryogenic storage are directly mixed into nutrient broth (PDB potato dextrose broth). […] […].10, and X.11.

Test [3] concerns Magnaporthe grisea (Pyricularia oryzae). The experiment in a line: whole plant or invertebrate. The test is classed as in vivo. The note with it: foliar, read-out: control of Magnaporthe grisea.
Another test relates to Pyrenophora teres. Kind of test: Example A12: Pyrenophora teres / barley / leaf disc preventative (net blotch). The test is classed as in vivo. The note with it: foliar, compared to untreated control. As for the experimental part: Example A12: Pyrenophora teres/Barley/Leaf Disc Preventative (Net Blotch) Barley leaf segments cv. Hasso are placed on agar in a multiwell plate (24-well format) and sprayed with the formulated test compound diluted in water. The leaf […] inoculated with a spore suspension of the fungus 2 days after application. The inoculated leaf segments are incubated at 20° C. and 65% rh under a light regime of 12 h light/12 h darkness in a climate cabinet and the activity of a compound is assessed as disease control compared to untreated when an appropriate level of disease damage appears in untreated check leaf segments (5-7 days after application). […] […].10, and X.11.

Test [4] concerns Glomerella lagenarium (Colletotrichum lagenarium). Kind of test: Example A3: Glomerella lagenarium (Colletotrichum lagenarium) / liquid culture (anthracnose). The test is classed as cell-based. The note with it: Colletotrichum orbiculare, compared to untreated control. The text has this: Example A3: Glomerella lagenarium (Colletotrichum lagenarium)/Liquid Culture (Anthracnose) Conidia of the fungus from cryogenic storage are directly mixed into nutrient broth (PDB potato dextrose broth). […] […].10, and X.11.

In a further test the test system is Alternaria solani. The experiment in a line: Example A1: Alternaria solani / tomato / leaf disc (early blight). The test is classed as in vivo. The note with it: foliar, tomato leaf disks, compared to untreated control. As for the experimental part: Example A1: Alternaria solani/Tomato/Leaf Disc (Early Blight) Tomato leaf disks cv. Baby are placed on agar in multiwell plates (24-well format) and sprayed with the formulated test compound diluted in water. The leaf disks are inoculated with a spore suspension of the fungus 2 days after application. The inoculated leaf disks are incubated at 23° C./21° C. […] […].10, and X.11.

In test [5] the test system is Puccinia recondita f. sp. tritici. Kind of test: Example A10: Puccinia recondita f. sp. tritici / wheat / leaf disc preventative (brown rust). The test is classed as in vivo. Conditions: foliar, compared to untreated control. As for the experimental part:
Example A10: Puccinia recondita f. Sp. Tritici/Wheat/Leaf Disc Preventative (Brown Rust) Wheat leaf segments cv. Kanzler are placed on agar in multiwell plates (24-well format) and sprayed with the formulated test compound diluted in water. The leaf disks are inoculated with a spore suspension of the fungus 1 day after application. The inoculated leaf segments are incubated at 19° C. and 75% rh under a light regime of 12 h light/12 h darkness in a climate cabinet and the activity of a compound is assessed as percent disease control compared to untreated when an appropriate level of disease damage appears in untreated check leaf segments (7-9 days after application). […] […].10, and X.11.

The test system of the next test is Sclerotinia sclerotiorum. Kind of test: Example A13: Sclerotinia sclerotiorum / liquid culture (cottony rot). The test is classed as cell-based. Conditions: 20 ppm, compared to untreated control.

One may read the inhibition of growth as the relative decrease from the control value, in per cent. A lower inhibition of growth goes with little suppression. For the molecule `Cc1sc(N(C(=O)C2CCOC2)c2cc(F)nc(F)c2)nc1C(=O)N(C(=O)C1CCOC1)C1CCC1(C)C` (centres unmarked) [Compound X.01, 2-[(2,6-difluoro-4-pyridyl)-(tetrahydrofuran-3-carbonyl)amino]-N-(2,2-dimethylcyclobutyl)-5-methyl-N-(tetrahydrofuran-3-carbonyl)thiazole-4-carboxamide], the pest or weed control at 200 ppm (in test [1]; in test [3]; with Pyrenophora teres; with Alternaria solani; in test [5]) was not below 80% each time. Also, the inhibition of growth at 20 ppm in test [2] and in test [4] was not below 80% each time.

As to `Cc1sc(N(C(=O)C2CCCO2)c2cc(F)nc(F)c2)nc1C(=O)NC1CCC1(C)C` (centres unmarked) [X.02, 2-[(2,6-difluoro-4-pyridyl)-(tetrahydrofuran-2-carbonyl)amino]-N-(2,2-dimethylcyclobutyl)-5-methyl-thiazole-4-carboxamide], the pest or weed control at 200 ppm (in test [1]; in test [3]; with Pyrenophora teres; in the test on Alternaria solani; in test [5]) was not below 80% throughout. Moreover, the inhibition of growth at 20 ppm in test [2] and in test [4] was not below 80% each time.

As to `Cc1sc(N(C(=O)C2CCOC2)c2cc(F)nc(F)c2)nc1C(=O)NC1CCC1(C)C` (centres unmarked) [X.03, 2-[(2,6-difluoro-4-pyridyl)-(tetrahydrofuran-3-carbonyl)amino]-N-(2,2-dimethylcyclobutyl)-5-methyl-thiazole-4-carboxamide], the pest or weed control at 200 ppm (in test [1]; in test [3]; in the test on Pyrenophora teres; in the test on Alternaria solani; in test [5]) was not below 80% in each case. In addition, the inhibition of growth at 20 ppm in test [2] and in test [4] was not below 80% throughout.

`Cc1sc(N(C(=O)C2COC2)c2cc(F)nc(F)c2)nc1C(=O)NC1CCC1(C)C` (centres unmarked) [X.04, 2-[(2,6-difluoro-4-pyridyl)-(oxetane-3-carbonyl)amino]-N-(2,2-dimethylcyclobutyl)-5-methyl-thiazole-4-carboxamide]: the pest or weed control at 200 ppm (in test [1]; in test [3]; with Pyrenophora teres; in the test with Alternaria solani; in test [5]) was not below 80% in each case. For the same molecule, the inhibition of growth at 20 ppm in test [2] and in test [4] was not below 80% in each case.

With `Cc1sc(N(C(=O)C(C)OC(C)(C)C)c2cc(F)nc(F)c2)nc1C(=O)NC1CCC1(C)C` (centres unmarked) [X.05, 2-[2-tert-butoxypropanoyl-(2,6-difluoro-4-pyridyl)amino]-N-(2,2-dimethylcyclobutyl)-5-methyl-thiazole-4-carboxamide], the pest or weed control at 200 ppm (in test [1]; in test [3]; in the test on Pyrenophora teres; in the test with Alternaria solani; in test [5]) was not below 80% throughout. Besides, the inhibition of growth at 20 ppm in test [2] is not below 80%.

For `Cc1sc(N(C(=O)C(C)OC(C)C)c2cc(F)nc(F)c2)nc1C(=O)NC1CCC1(C)C` (centres unmarked) [X.06, 2-[(2,6-difluoro-4-pyridyl)-(2-isopropoxypropanoyl)amino]-N-(2,2-dimethylcyclobutyl)-5-methyl-thiazole-4-carboxamide], the pest or weed control at 200 ppm (in test [1]; in test [3]; in the test on Pyrenophora teres; in the test with Alternaria solani; in test [5]) was not below 80% throughout. Besides, the inhibition of growth at 20 ppm in test [2] and in test [4] was not below 80% in each case.

Regarding `Cc1sc(N(C(=O)COC(C)(C)C)c2cc(F)nc(F)c2)nc1C(=O)NC1CCC1(C)C` (centres unmarked) [X.07, 2-[(2-tert-butoxyacetyl)-(2,6-difluoro-4-pyridyl)amino]-N-(2,2-dimethylcyclobutyl)-5-methyl-thiazole-4-carboxamide], the pest or weed control at 200 ppm in test [1] and in test [3] was not below 80% in each case.

Turning to `Cc1sc(N(C(=O)COC(C)C)c2cc(F)nc(F)c2)nc1C(=O)NC1CCC1(C)C` (centres unmarked) [X.08, 2-[(2,6-difluoro-4-pyridyl)-(2-isopropoxyacetyl)amino]-N-(2,2-dimethylcyclobutyl)-5-methyl-thiazole-4-carboxamide], the pest or weed control at 200 ppm in test [1] and in test [3] was not below 80% throughout.

Take `COC(C)C(=O)N(c1cc(F)nc(F)c1)c1nc(C(=O)NC2CCC2(C)C)c(C)s1` (centres unmarked) [X.09, 2-[(2,6-difluoro-4-pyridyl)-(2-methoxypropanoyl)amino]-N-(2,2-dimethylcyclobutyl)-5-methyl-thiazole-4-carboxamide]: the pest or weed control at 200 ppm (in test [1]; in test [3]; in the test with Pyrenophora teres; in the test on Alternaria solani; in test [5]) was not below 80% throughout. The inhibition of growth at 20 ppm in test [2] and in test [4] was not below 80% in each case.

`Cc1sc(N(C(=O)C(C)S(C)(=O)=O)c2cc(F)nc(F)c2)nc1C(=O)NC1CCC1(C)C` (centres unmarked) [X.10, 2-[(2,6-difluoro-4-pyridyl)-(2-methylsulfonylpropanoyl)amino]-N-(2,2-dimethylcyclobutyl)-5-methyl-thiazole-4-carboxamide]: the pest or weed control at 200 ppm (in test [1]; in test [3]; in the test with Pyrenophora teres; in the test with Alternaria solani) was not below 80% in each case. In addition, the inhibition of growth at 20 ppm in test [2] and in test [4] was not below 80% throughout. For the same molecule, the “control of Sclerotinia sclerotiorum” value with Sclerotinia sclerotiorum is given as “at least 80%”.

On to `Cc1sc(N(C(=O)C2CCOCC2)c2cc(F)nc(F)c2)nc1C(=O)NC1CCC1(C)C` (centres unmarked) [X.11, 2-[(2,6-difluoro-4-pyridyl)-(tetrahydropyran-4-carbonyl)amino]-N-(2,2-dimethylcyclobutyl)-5-methyl-thiazole-4-carboxamide], for which the pest or weed control at 200 ppm (in test [1]; in the test on Pyrenophora teres; with Alternaria solani; in test [5]) was not below 80% in each case. In addition, the inhibition of growth at 20 ppm in test [2] and in test [4] was not below 80% in each case.
